# From patent publication US9938258B2 (Karyopharm Therapeutics Inc., priority 2012, dated 2018)
# Where two headings read alike, the source gives them in different places.
# Assays:
# MS751 cells = assay: MTT cell proliferation assay, MS751; assay type: cell-based, human; details: eight concentrations 1 nM to 30 μM, incubation approximately 64-72 hours, read-out: MTT Assay IC50, MS751
# Method: (§1) The MTT cell proliferation assay was used to study the cytotoxic properties of the compounds. The assay was performed according to the method described by Roche Molecular Biochemicals, with minor modifications. The assay is based on the cleavage of the tetrazolium salt, MTT, in the presence of an electron-coupling reagent. The water-insoluble formazan salt produced must be solubilized in an additional step. Cells grown in a 96-well tissue culture plate were incubated with the MTT solution for approximately 4 hours. After this incubation period, a water-insoluble formazan dye formed. After solubilization, the formazan dye was quantitated using a scanning multi-well spectrophotometer (ELISA reader). […] The cells were seeded at 5,000-10,000 cells in each well of 96-well plate in 100 μL of fresh culture medium and were allowed to attach overnight. The stock solutions of the compounds were diluted in 100 μL cell culture medium to obtain eight concentrations of each test compound, ranging from 1 nM to 30 μM. […] All optical densities were measured at 490 nm using a Vmax Kinetic Microplate Reader (Molecular Devices). In most cases, the assay was performed in duplicate and the results were presented as a mean percent inhibition to the negative control±SE. The following formula was used to calculate the percent of inhibition: Inhibition (%)=(1-(ODo/OD)) ×100.
# (§2) The compounds were tested against MS751, Z138 and 3T3 cells. The MS751 cell line is derived from a metastasis to lymph node of human cervix from a patient diagnosed with squameous cell carcinoma of the cervix. The Z138 cell line is a mature B-cell acute lymphoblastic leukemia cell line derived from a patient with chronic lumphocytic leukemia. 3T3 cells are standard fibroblast cells; they were originally isolated from Swiss mouse embryo tissue.
# Z138 cells = assay: MTT cell proliferation assay, Z138; assay type: cell-based; details: eight concentrations 1 nM to 30 μM, incubation approximately 64-72 hours, read-out: MTT Assay IC50, Z138
# Method: as §1, §2
# 3T3 cells = assay: MTT cell proliferation assay, 3T3; assay type: cell-based, mouse; details: eight concentrations 1 nM to 30 μM, incubation approximately 64-72 hours, read-out: MTT Assay IC50, 3T3
# Method: as §1, §2
# [1] = Homo sapiens, MS751, MS751 cells
# [2] = Homo sapiens, Z-138, Z138 cells
# [3] = Mus musculus, NIH3T3, 3T3 cells
Compound,IC50 (MS751 cells; [1]),IC50 (Z138 cells; [2]),IC50 (3T3 cells; [3]),IC50 (MS751 cells; MS751 cells),IC50 (Z138 cells; Z138 cells),IC50 (3T3 cells; 3T3 cells)
"O=C(/C=C/c1cccnc1)NCC1Cc2cc(-c3ccc(Cl)cc3F)cc(Cl)c2O1 (stereo not drawn) [Compound 55, (E)-N-((7-chloro-5-(4-chloro-2-fluorophenyl)-2,3-dihydrobenzofuran-2-yl)methyl)-3-(pyridin-3-yl)acrylamide]",0.1 to 5 µM,0.1 to 5 µM,> 30 µM,,,
"O=C(/C=C/c1cccnc1)NCC1Cc2cc(-c3cccc(CO)c3)cc(Cl)c2O1 (stereo not drawn) [Compound 58, (E)-N-((7-chloro-5-(3-(hydroxymethyl)phenyl)-2,3-dihydrobenzofuran-2-yl)methyl)-3-(pyridin-3-yl)acrylamide]",0.1 to 5 µM,0.1 to 5 µM,0.1 to 5 µM,,,
"COc1ccc(F)cc1-c1cc(Cl)c2c(c1)CC(CNC(=O)/C=C/c1cccnc1)O2 (stereo not drawn) [Compound 61, (E)-N-((7-chloro-5-(5-fluoro-2-methoxyphenyl)-2,3-dihydrobenzofuran-2-yl)methyl)-3-(pyridin-3-yl)acrylamide]",0.1 to 5 µM,0.1 to 5 µM,0.1 to 5 µM,,,
"CN(C)c1ccc(-c2cc(Cl)c3c(c2)CC(CNC(=O)/C=C/c2cccnc2)O3)cc1 (stereo not drawn) [Compound 64, (E)-N-((7-chloro-5-(4-(dimethylamino)phenyl)-2,3-dihydrobenzofuran-2-yl)methyl)-3-(pyridin-3-yl)acrylamide]",0.1 to 5 µM,< 0.1 µM,0.1 to 5 µM,,,
"O=C(/C=C/c1cccnc1)NCC1Cc2cc(-c3ccccc3)cc(Cl)c2O1 (stereo not drawn) [Compound 67, (E)-N-((7-chloro-5-phenyl-2,3-dihydrobenzofuran-2-yl)methyl)-3-(pyridin-3-yl)acrylamide]",0.1 to 5 µM,0.1 to 5 µM,5 to 30 µM,,,
"O=C(/C=C/c1cccnc1)NCC1Cc2cc(-c3cccnc3)cc(Cl)c2O1 (stereo not drawn) [Compound 70, (E)-N-((7-chloro-5-(pyridin-3-yl)-2,3-dihydrobenzofuran-2-yl)methyl)-3-(pyridin-3-yl)acrylamide]",0.1 to 5 µM,0.1 to 5 µM,5 to 30 µM,,,
"O=C(/C=C/c1cccnc1)NCC1Cc2cc(-c3cccc(F)c3F)cc(Cl)c2O1 (stereo not drawn) [Compound 73, (E)-N-((7-chloro-5-(2,3-difluorophenyl)-2,3-dihydrobenzofuran-2-yl)methyl)-3-(pyridin-3-yl)acrylamide]",0.1 to 5 µM,0.1 to 5 µM,5 to 30 µM,,,
"O=C(/C=C/c1cccnc1)NCC1Cc2cc(-c3cccc(C(=O)O)c3)cc(Cl)c2O1 (stereo not drawn) [Compound 76, (E)-3-(7-chloro-2-((3-(pyridin-3-yl)acrylamido)methyl)-2,3-dihydrobenzofuran-5-yl)benzoic acid]",5 to 30 µM,5 to 30 µM,5 to 30 µM,,,
"CS(=O)(=O)c1cncc(-c2cc(Cl)c3c(c2)CC(CNC(=O)/C=C/c2cccnc2)O3)c1 (stereo not drawn) [Compound 77, (E)-N-((7-chloro-5-(5-(methylsulfonyl)pyridin-3-yl)-2,3-dihydrobenzofuran-2-yl)methyl)-3-(pyridin-3-yl)acrylamide]",0.1 to 5 µM,0.1 to 5 µM,0.1 to 5 µM,,,
"CS(=O)(=O)c1cccc(-c2cc(Cl)c3c(c2)CC(CNC(=O)/C=C/c2cccnc2)O3)c1 (stereo not drawn) [Compound 80, (E)-N-((7-chloro-5-(3-(methylsulfonyl)phenyl)-2,3-dihydrobenzofuran-2-yl)methyl)-3-(pyridin-3-yl)acrylamide]",0.1 to 5 µM,0.1 to 5 µM,0.1 to 5 µM,,,
"O=C(/C=C/c1cccnc1)NCC1Cc2cccc(Cl)c2O1 (stereo not drawn) [Compound 83, (E)-N-((7-chloro-2,3-dihydrobenzofuran-2-yl)methyl)-3-(pyridin-3-yl)acrylamide]",5 to 30 µM,5 to 30 µM,> 30 µM,,,
"Nc1ccccc1-c1cc(Cl)c2c(c1)CC(CNC(=O)/C=C/c1cccnc1)O2 (stereo not drawn) [Compound 84, (E)-N-((5-(2-aminophenyl)-7-chloro-2,3-dihydrobenzofuran-2-yl)methyl)-3-(pyridin-3-yl)acrylamide]",0.1 to 5 µM,0.1 to 5 µM,5 to 30 µM,,,
"CC(=O)c1ccc(-c2cc(F)c3c(c2)CC(CNC(=O)/C=C/c2cccnc2)O3)s1 (stereo not drawn) [Compound 87, (E)-N-((5-(5-acetylthiophen-2-yl)-7-fluoro-2,3-dihydrobenzofuran-2-yl)methyl)-3-(pyridin-3-yl)acrylamide]",0.1 to 5 µM,0.1 to 5 µM,0.1 to 5 µM,,,
"CC(=O)c1ccc(-c2cc(Cl)c3c(c2)CC(CNC(=O)/C=C/c2cccnc2)O3)o1 (stereo not drawn) [Compound 99, (E)-N-((5-(5-acetylfuran-2-yl)-7-chloro-2,3-dihydrobenzofuran-2-yl)methyl)-3-(pyridin-3-yl)acrylamide]",< 0.1 µM,< 0.1 µM,0.1 to 5 µM,,,
"CC(=O)c1ccc(-c2cc(Cl)c3c(c2)CC(CNC(=O)/C=C/c2ccccn2)O3)s1 (stereo not drawn) [Compound 103, (E)-N-((5-(5-acetylthiophen-2-yl)-7-chloro-2,3-dihydrobenzofuran-2-yl)methyl)-3-(pyridin-2-yl)acrylamide]",> 30 µM,> 30 µM,> 30 µM,,,
"CC(=O)c1ccc(-c2cc(Cl)c3c(c2)CC(CNC(=O)/C=C/c2cnc(N)nc2)O3)s1 (stereo not drawn) [Compound 104, (E)-N-((5-(5-acetylthiophen-2-yl)-7-chloro-2,3-dihydrobenzofuran-2-yl)methyl)-3-(2-aminopyrimidin-5-yl)acrylamide]",> 30 µM,> 30 µM,> 30 µM,,,
"CC(=O)c1ccc(-c2cc(Cl)c3c(c2)CC(CNC(=O)/C=C/c2cccnc2N)O3)s1 (stereo not drawn) [Compound 106, (E)-N-((5-(5-acetylthiophen-2-yl)-7-chloro-2,3-dihydrobenzofuran-2-yl)methyl)-3-(2-aminopyridin-3-yl)acrylamide]",5 to 30 µM,5 to 30 µM,5 to 30 µM,,,
"CC(=O)c1ccc(-c2cc(Cl)c3c(c2)CC(CNC(=O)/C=C/c2cnccc2N)O3)s1 (stereo not drawn) [Compound 108, (E)-N-((5-(5-acetylthiophen-2-yl)-7-chloro-2,3-dihydrobenzofuran-2-yl)methyl)-3-(4-aminopyridin-3-yl)acrylamide]",0.1 to 5 µM,0.1 to 5 µM,5 to 30 µM,,,
"CC(=O)c1ccc(-c2cc(Cl)c3c(c2)CC(CNC(=O)/C=C/c2ccccc2N)O3)s1 (stereo not drawn) [Compound 110, (E)-N-((5-(5-acetylthiophen-2-yl)-7-chloro-2,3-dihydrobenzofuran-2-yl)methyl)-3-(2-aminophenyl)acrylamide]",> 30 µM,> 30 µM,> 30 µM,,,
"CC(=O)c1ccc(-c2cc(Cl)c3c(c2)CC(CNC(=O)/C=C/c2ccc(C#N)cc2)O3)s1 (stereo not drawn) [Compound 112, (E)-N-((5-(5-acetylthiophen-2-yl)-7-chloro-2,3-dihydrobenzofuran-2-yl)methyl)-3-(4-cyanophenyl)acrylamide]",> 30 µM,> 30 µM,> 30 µM,,,
"CC(=O)c1ccc(-c2cc(Cl)c3c(c2)CC(CNC(=O)/C=C/c2ccc(N)cc2)O3)s1 (stereo not drawn) [Compound 114, (E)-N-((5-(5-acetylthiophen-2-yl)-7-chloro-2,3-dihydrobenzofuran-2-yl)methyl)-3-(4-aminophenyl)acrylamide]",> 30 µM,> 30 µM,> 30 µM,,,
"CC(=O)c1ccc(-c2cc(Cl)c3c(c2)CC(CNC(=O)/C=C/c2ccc(N)nc2C)O3)s1 (stereo not drawn) [Compound 118, (E)-N-((5-(5-acetylthiophen-2-yl)-7-chloro-2,3-dihydrobenzofuran-2-yl)methyl)-3-(6-amino-2-methylpyridin-3-yl)acrylamide]",5 to 30 µM,0.1 to 5 µM,5 to 30 µM,,,
"CC(=O)c1ccc(-c2cc(Cl)c3c(c2)CC(CNC(=O)/C=C/C2C(Cl)=NC4=CC=CCN42)O3)s1 (stereo not drawn) [Compound 120, (E)-N-((5-(5-Acetylthiophen-2-yl)-7-chloro-2,3-dihydrobenzofuran-2-yl)methyl)-3-(2-chloro-3,5-dihydroimidazo[1,2-a]pyridin-3-yl)acrylamide]",5 to 30 µM,5 to 30 µM,5 to 30 µM,,,
"CC(=O)c1ccc(-c2cc(Cl)c3c(c2)CC(CNC(=O)/C=C/c2cccnc2)O3)s1 (stereo not drawn) [Compound 122, (E)-N-((5-(5-acetylthiophen-2-yl)-7-chloro-2,3-dihydrobenzofuran-2-yl)methyl)-3-(pyridin-3-yl)acrylamide]",,,,0.1 to 5 µM,0.1 to 5 µM,0.1 to 5 µM
